Several values for one entry are separate records, joined by “and”; a condition that tells them apart may be missing. Equal entries are not always repeated. Toxic doses and inconclusive results are not listed. The calls were made as follows: active = survival T/C of 150% or more; inactive = T/C below 125% in these data.
System: P388 leukemia ip, CD2F1 mice, survival T/C
Assay: NCI In Vivo Anticancer Drug Screen. Data for tumor model P388 Leukemia (intraperitoneal) in CD2F1 (CDF1) mice
Conditions: endpoint: median survival time, higher = longer survival
Summary of the method: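 Mice carrying the transplanted tumor received test compound or vehicle. Survival was recorded in each group, and the value is the treated-group measurement divided by that of the vehicle-treated control group.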

[1] = dose: 60.0 mg/kg/injection, schedule: Q01DX005 (ip), vehicle: Klucel + Tween-80
[2] = dose: 120.0 mg/kg/injection, schedule: Q01DX005 (ip), vehicle: Klucel + Tween-80
[3] = dose: 240.0 mg/kg/injection, schedule: Q01DX005 (ip), vehicle: Klucel + Tween-80
[4] = dose: 12.5 mg/kg/injection, schedule: Q01DX009 (ip), vehicle: saline
[5] = dose: 25.0 mg/kg/injection, schedule: Q01DX009 (ip), vehicle: saline
[6] = dose: 50.0 mg/kg/injection, schedule: Q01DX009 (ip), vehicle: saline
[7] = dose: 100.0 mg/kg/injection, schedule: Q01DX009 (ip), vehicle: saline
[8] = dose: 200.0 mg/kg/injection, schedule: Q01DX009 (ip), vehicle: saline
[9] = dose: 50.0 mg/kg/injection, schedule: Q01DX005 (ip), vehicle: saline
[10] = dose: 100.0 mg/kg/injection, schedule: Q01DX005 (ip), vehicle: saline
[11] = dose: 200.0 mg/kg/injection, schedule: Q01DX005 (ip), vehicle: saline
[12] = dose: 50.0 mg/kg/injection, schedule: Q01DX009 (ip), vehicle: Klucel (hydroxypropylcellulose) (HPC)
[13] = dose: 100.0 mg/kg/injection, schedule: Q01DX009 (ip), vehicle: Klucel (hydroxypropylcellulose) (HPC)
[14] = dose: 200.0 mg/kg/injection, schedule: Q01DX009 (ip), vehicle: Klucel (hydroxypropylcellulose) (HPC)
[15] = dose: 50.0 mg/kg/injection, schedule: Q01DX005 (ip), vehicle: saline with Tween-80

Measured: T/C

O=c1[nH]c2cc([N+](=O)[O-])ccc2nc1/C=C(\O)c1cccc2ccccc12
inactive: dose: 30.0 mg/kg/injection, schedule: Q01DX005 (ip), vehicle: Klucel + Tween-80 91 % of control | [1] 87 % of control and 94 % of control | [2] 86 % of control | [3] 88 % of control

CO/C=C1\CC(=O)N(C)C1=O
inactive: dose: 100.0 mg/kg/injection, schedule: Q04DX003 (ip), vehicle: saline with Tween-80 110 % of control | dose: 200.0 mg/kg/injection, schedule: Q04DX003 (ip), vehicle: saline with Tween-80 97 % of control | dose: 400.0 mg/kg/injection, schedule: Q04DX003 (ip), vehicle: saline with Tween-80 97 % of control

CC(=O)Oc1ccc[nH]c1=S
inactive: [4] 101 % of control and 103 % of control | [5] 104 % of control and 106 % of control | [6] 99 % of control and 102 % of control | dose: 100.0 mg/kg/injection, schedule: Q01DX008 (ip), vehicle: saline 104 % of control and 106 % of control | [7] 100 % of control and 104 % of control | dose: 200.0 mg/kg/injection, schedule: Q01DX008 (ip), vehicle: saline 105 % of control and 110 % of control | [8] 109 % of control and 113 % of control | dose: 400.0 mg/kg/injection, schedule: Q01DX008 (ip), vehicle: saline 120 % of control | dose: 400.0 mg/kg/injection, schedule: Q01DX009 (ip), vehicle: saline 96 % of control

COc1ccc2c(c1)OC1COc3cc(OC)c(OC)cc3C1C2=O (stereo unspecified)
inactive: [4] 101 % of control | [5] 94 % of control | [6] 92 % of control | [7] 93 % of control

CN(C)NP(=O)(NN(C)C)Oc1ccccc1
inactive: [9] 97 % of control | [10] 99 % of control | [11] 103 % of control

COCN(C)N=Nc1ccc(C(C)=O)cc1
inactive: dose: 50.0 mg/kg/injection, schedule: Q01DX005 (ip), vehicle: Klucel (hydroxypropylcellulose) (HPC) 100 % of control | dose: 100.0 mg/kg/injection, schedule: Q01DX005 (ip), vehicle: Klucel (hydroxypropylcellulose) (HPC) 104 % of control | dose: 200.0 mg/kg/injection, schedule: Q01DX005 (ip), vehicle: Klucel (hydroxypropylcellulose) (HPC) 121 % of control

CSc1nc(SC)c2nc(SC)n(-c3ccccc3)c2n1
inactive: dose: 3.13 mg/kg/injection, schedule: Q01DX009 (ip), vehicle: saline with Tween-80 102 % of control | dose: 6.25 mg/kg/injection, schedule: Q01DX009 (ip), vehicle: saline with Tween-80 104 % of control | dose: 12.5 mg/kg/injection, schedule: Q01DX009 (ip), vehicle: saline with Tween-80 101 % of control | dose: 25.0 mg/kg/injection, schedule: Q01DX009 (ip), vehicle: saline with Tween-80 97 % of control

COc1ccc(C(=O)N2CC(O)=CC2=O)cc1
inactive: [12] 105 % of control | [13] 107 % of control | [14] 92 % of control

CC1NC(=O)C2Cc3ccc(O)c(c3)Oc3cccc(c3)C(O)C(C(=O)N2C)N(C)C(=O)C(C)NC(=O)C(Cc2ccc(O)c(O)c2)N(C)C(=O)C(C)NC1=O (stereo unspecified)
inactive: dose: 16.0 mg/kg/injection, schedule: Q01DX009 (ip), vehicle: distilled water + Tween-80 112 % of control | dose: 32.0 mg/kg/injection, schedule: Q01DX009 (ip), vehicle: distilled water + Tween-80 112 % of control | dose: 64.0 mg/kg/injection, schedule: Q01DX009 (ip), vehicle: distilled water + Tween-80 122 % of control

O/N=C(/Cc1nc2cc(Cl)c(Cl)cc2nc1C/C(=N/O)c1ccncc1)c1ccncc1
inactive: dose: 60.0 mg/kg/injection, schedule: Q01DX005 (ip), vehicle: saline with Tween-80 102 % of control | dose: 120.0 mg/kg/injection, schedule: Q01DX005 (ip), vehicle: saline with Tween-80 100 % of control | dose: 240.0 mg/kg/injection, schedule: Q01DX005 (ip), vehicle: saline with Tween-80 102 % of control

OCC(CO)c1ccccc1
inactive: dose: 37.5 mg/kg/injection, schedule: Q04DX003 (ip), vehicle: saline 97 % of control | dose: 75.0 mg/kg/injection, schedule: Q04DX003 (ip), vehicle: saline 100 % of control | dose: 150.0 mg/kg/injection, schedule: Q04DX003 (ip), vehicle: saline 100 % of control

CCCCN(CCCC)C(=N)OC1CCCCC1
inactive: dose: 12.5 mg/kg/injection, schedule: Q01DX005 (ip), vehicle: saline with Tween-80 102 % of control | dose: 25.0 mg/kg/injection, schedule: Q01DX005 (ip), vehicle: saline with Tween-80 100 % of control | [15] 100 % of control

C=CCNC(=S)NCCN(CCO)C(=S)NCC=C
inactive: [4] 105 % of control | [5] 104 % of control | [6] 104 % of control and 93 % of control | [8] 98 % of control

CCOC(=O)C(=Cc1ccc(OC)c(OC)c1)C(=O)OCC
inactive: [15] 110 % of control | dose: 100.0 mg/kg/injection, schedule: Q01DX005 (ip), vehicle: saline with Tween-80 102 % of control | dose: 200.0 mg/kg/injection, schedule: Q01DX005 (ip), vehicle: saline with Tween-80 103 % of control

CN(C)c1cc(-c2ccccc2)oc(=O)c1Cl
inactive: dose: 50.0 mg/kg/injection, schedule: Q01DX009 (ip), vehicle: saline with Tween-80 99 % of control | dose: 100.0 mg/kg/injection, schedule: Q01DX009 (ip), vehicle: saline with Tween-80 100 % of control

Cc1cc(Cl)ccc1OCC1OC(=O)C(C)(C)O1 (stereo unspecified)
inactive: [12] 100 % of control | [13] 100 % of control | [14] 101 % of control

C/C(N)=C/C(=O)c1ccccc1
inactive: dose: 100.0 mg/kg/injection, schedule: Q04DX003 (ip), vehicle: saline 102 % of control | dose: 200.0 mg/kg/injection, schedule: Q04DX003 (ip), vehicle: saline 100 % of control | dose: 400.0 mg/kg/injection, schedule: Q04DX003 (ip), vehicle: saline 105 % of control

CC1(C)OC2OC(CN=NNc3ccc([N+](=O)[O-])cc3)C3OC(C)(C)OC3C2O1 (stereo unspecified)
inactive: [1] 100 % of control | [2] 91 % of control | [3] 87 % of control

CC(C)NC(=O)N1C2C3CCC(C)(OC3(C)C)C21 (stereo unspecified)
inactive: [9] 108 % of control | [10] 101 % of control | [11] 101 % of control
